In ChEMBL document CHEMBL1151904, “Computer-aided rational molecular design of argifin-derivatives with increased inhibitory activity against chitinase B from Serratia marcescens” (Bioorg Med Chem Lett, 2009):

Target: T1, Chitinase B (Serratia marcescens, UniProt P11797)
T1 sequence (P11797 whole entry): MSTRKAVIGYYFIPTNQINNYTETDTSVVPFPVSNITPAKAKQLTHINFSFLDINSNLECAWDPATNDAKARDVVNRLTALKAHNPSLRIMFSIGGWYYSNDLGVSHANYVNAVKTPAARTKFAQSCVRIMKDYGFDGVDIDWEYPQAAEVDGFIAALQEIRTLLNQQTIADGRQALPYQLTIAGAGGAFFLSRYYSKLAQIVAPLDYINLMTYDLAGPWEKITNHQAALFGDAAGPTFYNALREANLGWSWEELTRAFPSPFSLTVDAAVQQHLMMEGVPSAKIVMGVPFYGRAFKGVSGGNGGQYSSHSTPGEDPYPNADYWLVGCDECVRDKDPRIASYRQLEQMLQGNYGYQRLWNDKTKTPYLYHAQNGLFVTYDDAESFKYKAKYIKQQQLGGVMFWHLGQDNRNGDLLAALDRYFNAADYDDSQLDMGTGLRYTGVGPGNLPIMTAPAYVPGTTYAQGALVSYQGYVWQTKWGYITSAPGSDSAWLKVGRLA
Experiment: Inhibition of Serratia marcescens chitinase B

CNC(=O)NC(N)=NCCC[C@@H]1NC(=O)[C@@H](CC(C)C)NC(=O)C[C@@H](C(=O)N2CCC(Cc3ccccc3)CC2)NC(=O)C[C@@H](C(=O)O)NC(=O)[C@H](Cc2ccccc2)N(C)C1=O
IC50: 0.23 µM

CNC(=O)NC(N)=NCCC[C@@H]1NC(=O)[C@@H](C)NC(=O)C[C@@H](C(=O)N2CCC(Cc3ccccc3)CC2)NC(=O)C[C@@H](C(=O)O)NC(=O)[C@H](Cc2ccccc2)N(C)C1=O
IC50: 1.3 µM

CNC(=O)NC(=N)NCCC[C@@H]1NC(=O)[C@@H](Cc2c[nH]c3ccccc23)NC(=O)C[C@@H](C(=O)O)NC(=O)C[C@@H](C(=O)O)NC(=O)[C@H](Cc2ccccc2)N(C)C1=O
IC50: 4.5 µM

CNC(=O)NC(=N)NCCC[C@@H]1NC(=O)[C@@H](CCSC)NC(=O)C[C@@H](C(=O)O)NC(=O)C[C@@H](C(=O)O)NC(=O)[C@H](Cc2ccccc2)N(C)C1=O
IC50: 10 µM

CNC(=O)NC(N)=NCCC[C@@H]1NC(=O)[C@@H](CC(C)C)NC(=O)C[C@@H](C(=O)O)NC(=O)C[C@@H](C(=O)O)NC(=O)[C@H](Cc2ccccc2)N(C)C1=O
IC50: 1.9 µM

CNC(=O)NC(N)=NCCC[C@@H]1NC(=O)[C@@H](Cc2ccccc2)NC(=O)C[C@@H](C(=O)O)NC(=O)C[C@@H](C(=O)O)NC(=O)[C@H](Cc2ccccc2)N(C)C1=O
IC50: 9.9 µM

CNC(=O)NC(N)=NCCC[C@@H]1NC(=O)[C@@H](C(C)C)NC(=O)C[C@@H](C(=O)O)NC(=O)C[C@@H](C(=O)O)NC(=O)[C@H](Cc2ccccc2)N(C)C1=O
IC50: 6.1 µM
